# Read-outs that look alike come from different tables or passages of the source.
# Experiments:
# E. coli MG1655OXA-48 = experiment: Bacterial susceptibility; type: cell-based; conditions: for MIC: Escherichia coli
# OXA-10 = OXA-10 (Pseudomonas aeruginosa, UniProt P14489); experiment: Inhibition assay with nitrocefin as reporter, OXA-10; type: biochemical
# OXA-24 = OXA-24 (Acinetobacter baumannii, UniProt Q8RLA6); experiment: Inhibition assay with nitrocefin as reporter, OXA-24; type: biochemical
# OXA-48 = OXA-48 (Klebsiella pneumoniae, UniProt Q6XEC0); experiment: Inhibition of OXA-48 mediated nitrocefin hydrolysis; type: biochemical; conditions: purified OXA-48, nitrocefin substrate, Morrison equation
# OXA-163 = OXA-163 (Klebsiella pneumoniae, UniProt Q6XEC0, DEL214-217/S212D); experiment: Inhibition assay with nitrocefin as reporter, OXA-163; type: biochemical; conditions: read-out: CDD-97 Ki; OXA-163, nitrocefin substrate
# E. coli MG1655 = experiment: Accumulation assay in E. coli; type: cell-based; conditions: wild-type E. coli MG1655, 10 minutes at 37°C, LC-MS/MS
# OXA-58 = OXA-58 (Acinetobacter baumannii, UniProt Q2TR58); experiment: Inhibition assay with nitrocefin as reporter, OXA-58; type: biochemical
smiles,measurement,setting,value
"C[C@@H](O)[C@H]1C(=O)N2C(C(=O)O)=C(SCCN=CN)C[C@H]12 [IMP, imipenem]",MIC,"E. coli MG1655OXA-48; MG1655OXA48, read-out: IMP MIC, no inhibitor (0 μg/mL)",0.625 µg/mL
CCOc1ccccc1N1CCN(c2ncnc(N3CCC(C(=O)O)CC3)n2)CC1 [CDD-97],Ki less potent than observed for OXA-48,OXA-10; OXA-10 vs OXA-48,about 100 fold
same,Ki,"OXA-10; read-out: CDD-97 Ki, OXA-10, nitrocefin substrate",61 ± 27 µM
same,decrease in potency compared to OXA-48,OXA-24; OXA-24 vs OXA-48,26 fold
same,Ki,"OXA-24; read-out: CDD-97 Ki, OXA-24, nitrocefin substrate",14 ± 1 µM
same,Ki,OXA-48,0.53 ± 0.08 µM
same,Ki,OXA-163,0.44 ± 0.02 µM
same,level in cells lower than the positive control tetracycline,E. coli MG1655,20 fold
same,Ki less potent than observed for OXA-48,OXA-58; OXA-58 vs OXA-48,about 100 fold
same,Ki,"OXA-58; read-out: CDD-97 Ki, OXA-58, nitrocefin substrate",45 ± 0.8 µM
same,AMP MIC,E. coli MG1655OXA-48; with CDD-97 4 μg/mL,1024 µg/mL
same,IMP MIC,E. coli MG1655OXA-48; with CDD-97 4 μg/mL,0.625 µg/mL
same,AMP MIC,E. coli MG1655OXA-48; with CDD-97 8 μg/mL,512 µg/mL
same,IMP MIC,E. coli MG1655OXA-48; with CDD-97 8 μg/mL,0.3125 µg/mL
same,AMP MIC,E. coli MG1655OXA-48; with CDD-97 16 μg/mL,512 µg/mL
same,IMP MIC,E. coli MG1655OXA-48; with CDD-97 16 μg/mL,0.3125 µg/mL
same,AMP MIC,E. coli MG1655OXA-48; with CDD-97 32 μg/mL,512 µg/mL
same,IMP MIC,E. coli MG1655OXA-48; with CDD-97 32 μg/mL,0.3125 µg/mL
same,AMP MIC,E. coli MG1655OXA-48; with CDD-97 64 μg/mL,512 µg/mL
same,IMP MIC,E. coli MG1655OXA-48; with CDD-97 64 μg/mL,0.3125 µg/mL
"CC1(C)S[C@@H]2[C@H](NC(=O)[C@H](N)c3ccccc3)C(=O)N2[C@H]1C(=O)O [AMP, ampicillin]",MIC,"E. coli MG1655OXA-48; MG1655OXA48, read-out: AMP MIC, no inhibitor (0 μg/mL)",512 µg/mL
"NC(=O)[C@@H]1CC[C@@H]2CN1C(=O)N2OS(=O)(=O)O [Avibactam, avibactam]",MIC,"E. coli MG1655OXA-48; MG1655OXA48, read-out: AMP MIC, with avibactam 0.125 μg/mL",256 µg/mL
same,MIC,"E. coli MG1655OXA-48; MG1655OXA48, read-out: AMP MIC, with avibactam 0.25 μg/mL",128 µg/mL
same,MIC,"E. coli MG1655OXA-48; MG1655OXA48, read-out: AMP MIC, with avibactam 0.5 μg/mL",64 µg/mL
same,MIC,"E. coli MG1655OXA-48; MG1655OXA48, read-out: AMP MIC, with avibactam 1 μg/mL",32 µg/mL
same,MIC,"E. coli MG1655OXA-48; MG1655OXA48, read-out: AMP MIC, with avibactam 2 μg/mL",16 µg/mL
same,MIC,"E. coli MG1655OXA-48; MG1655OXA48, read-out: AMP MIC, with avibactam 4 μg/mL",4 µg/mL
same,MIC,"E. coli MG1655OXA-48; MG1655OXA48, read-out: IMP MIC, with avibactam 0.125 μg/mL",0.312 µg/mL
same,MIC,"E. coli MG1655OXA-48; MG1655OXA48, read-out: IMP MIC, with avibactam 0.25 μg/mL",0.312 µg/mL
same,MIC,"E. coli MG1655OXA-48; MG1655OXA48, read-out: IMP MIC, with avibactam 0.5 μg/mL",0.156 µg/mL
same,MIC,"E. coli MG1655OXA-48; MG1655OXA48, read-out: IMP MIC, with avibactam 1 μg/mL",0.156 µg/mL
same,MIC,"E. coli MG1655OXA-48; MG1655OXA48, read-out: IMP MIC, with avibactam 2 μg/mL",0.156 µg/mL
same,MIC,"E. coli MG1655OXA-48; MG1655OXA48, read-out: IMP MIC, with avibactam 4 μg/mL",0.0781 µg/mL
same,change of both the AMP and IMP MICs with increasing inhibitor concentration,E. coli MG1655OXA-48; inhibitor up to 4 μg/ml,dose-dependent decrease

# Reference: PMC7673237 (ACS infectious diseases, 2020)
